{"source": "patent US5929112A", "about": "“Derivatives of N,N'-di (carboxyalkyl) alkylene di-or triamine” (L'Oreal, priority 1995, dated 1999)", "test": "Comparative solubility tests in 50 mM acetate buffer pH 5.8", "type": "physicochemical", "details": "aqueous buffer", "source_text": "COMPARATIVE SOLUBILITY TESTS", "note": "Counter-ions that a name gives are not always drawn.", "data": [{"compound": "COc1cc(CN(CCN(CC(=O)O)Cc2cc(OC)c(OC)c(OC)c2)CC(=O)O)cc(OC)c1OC", "note": "[N,N'-bis-(3,4,5-trimethoxybenzyl) ethylenediamine-N,N'-diacetic acid, 2 HCl]", "values": [{"measurement": "solubility", "result": "< 5", "unit": "mg/mL"}]}, {"compound": "COc1cc(CN(CC(=O)O)CC(C)N(CC(=O)O)Cc2cc(OC)c(OC)c(OC)c2)cc(OC)c1OC", "note": "(centres unmarked) [Example 1, N,N'-bis-(3,4,5-trimethoxybenzyl)-2-methyl ethylenediamine diacetic acid]", "values": [{"measurement": "solubility", "result": "> 100", "unit": "mg/mL"}]}]}
